Measurements from PMC7719383 (Clinical and Translational Science, 2020).
Where two headings read alike, the source gives them in different places.

How the values were obtained:
[1] = system: patients with advanced pancreatic cancer; type: in vivo, human
[2] = Plasma pharmacokinetics; type: in vivo, human; settings: for Tmax: median; for effect of co‐administration on exposure: dinaciclib with MK‐2206
[3] = cited from earlier work
[4] = system: pSer473 Akt; settings: lowest dose level tested (60 mg once weekly); cited from earlier work
[5] = A: Dinaciclib/combination N = 11

Compound: NC1(c2ccc(-c3nc4ccn5c(=O)[nH]nc5c4cc3-c3ccccc3)cc2)CCC1 [MK‐2206]
- Dose reduction MK‐2206 [1, 5]: 0 (0%) n (%)
- Dose reduction MK‐2206 ([1]; B: MK‐2206/combination N = 7): 1 (14%) n (%)
- Dose reduction MK‐2206 ([1]; Dose escalation N = 21): 1 (5%) n (%)
- maximum tolerated dose ([1]; MK‐2206 p.o. weekly in combination with dinaciclib): 135 mg
- C ss,min ([2]; MK‐2206 alone, Expansion, arm B, MK‐2206 135 mg, dinaciclib 9 mg/m^2, mean ± SD): 48.0 ± 22.7 (7)
- Tmax ([2]; MK‐2206 alone, Expansion, arm B, MK‐2206 135 mg, dinaciclib 9 mg/m^2): 4 (2.17–25.17; 7) hour
- T 1/2 ([2]; MK‐2206 in combination, Expansion, arm B, dose reduced, MK‐2206 90 mg, dinaciclib 9 mg/m^2, n = 1): 64.5 (1) h
- effect of co‐administration on exposure [2]: did not alter
- half-life ([2]; human, plasma, oral, 90 mg, T 1/2, MK‐2206 alone, Escalation, level 3, MK‐2206 90 mg, dinaciclib 12 mg/m^2, mean ± SD): 2.85 ± 0.692 days
- Tmax ([2]; human, plasma, oral, 90 mg, Tmax, MK‐2206 alone, Escalation, level 3, MK‐2206 90 mg, dinaciclib 12 mg/m^2): 5.97 h
- half-life ([2]; human, plasma, oral, 135 mg, T 1/2, MK‐2206 alone, Escalation, level 2.5, MK‐2206 135 mg, dinaciclib 9 mg/m^2, mean ± SD): 2.37 ± 0.404 days
- Tmax ([2]; human, plasma, oral, 135 mg, Tmax, MK‐2206 alone, Escalation, level 2.5, MK‐2206 135 mg, dinaciclib 9 mg/m^2): 4.5 h
- half-life ([2]; human, plasma, oral, T 1/2, MK‐2206 in combination, Expansion, arm A, MK‐2206 135 mg, dinaciclib 9 mg/m^2, mean ± SD): 2.9 ± 0.963 days
- Tmax ([2]; human, plasma, oral, Tmax, MK‐2206 in combination, Expansion, arm A, MK‐2206 135 mg, dinaciclib 9 mg/m^2): 10.2 h
- Tmax ([2]; human, plasma, oral, Tmax, MK‐2206 in combination, Expansion, arm B, MK‐2206 135 mg, dinaciclib 9 mg/m^2): 5.13 h
- recommended phase II dose ([3]; once weekly): 200 mg
- pSer473 Akt expression in tumor biopsies [4]: significant reduction

Compound: CCc1cnn2c(NCc3ccc[n+]([O-])c3)cc(N3CCCC[C@H]3CCO)nc12 [dinaciclib]
- Dose reduction Dinaciclib [1, 5]: 2 (18%) n (%)
- Dose reduction Dinaciclib ([1]; B: MK‐2206/combination N = 7): 0 (0%) n (%)
- Dose reduction Dinaciclib ([1]; Dose escalation N = 21): 3 (14%) n (%)
- maximum tolerated dose ([1]; dinaciclib i.v. weekly in combination with MK‐2206): 9 mg/m^2
- association between exposure (Cmax) and race ([2]; African Americans and Asians vs white patients, P = 0.04): lower exposure
- effect of co‐administration on exposure [2]: did not alter
- recommended phase II dose ([3]; single agent): 12 mg/m^2
